Tests used:
[1] = biological target: Dihydrofolate reductase (Lactobacillus casei) (UniProt P00381); conditions: Lacticaseibacillus casei
Description: Compound was tested for inhibition of Lactobacillus casei dihydrofolate reductase using competitive [3H]MTX binding assay

[2] = biological target: Dihydrofolate reductase (Lactobacillus casei) (UniProt P00381); conditions: Lacticaseibacillus casei; remark: listed apart in the source
Description: Compound was tested for inhibition of Lactobacillus casei dihydrofolate reductase using spectrophotometric assay at 340 nm

[3] = tested on: L1210; assay: Growth inhibitory activity against L1210 mouse leukemia cell line; format: functional; conditions: read-out: ID50 (the source's name)
[4] = biological target: T1, Dihydrofolate reductase (Mus musculus) (UniProt P00375); conditions: L1210
T1 sequence (whole entry): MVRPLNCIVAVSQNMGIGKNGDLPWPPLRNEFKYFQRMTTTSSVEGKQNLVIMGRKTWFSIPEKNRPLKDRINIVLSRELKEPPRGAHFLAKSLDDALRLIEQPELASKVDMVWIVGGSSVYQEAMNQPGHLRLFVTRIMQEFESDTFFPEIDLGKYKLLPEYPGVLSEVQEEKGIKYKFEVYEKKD
Description: Compound was tested for inhibition of L1210 dihydrofolate reductase by competitive [3H]MTX binding assay in L1210 mouse leukemia cell lines

Sequence of Dihydrofolate reductase (Lactobacillus casei) (P00381 whole entry): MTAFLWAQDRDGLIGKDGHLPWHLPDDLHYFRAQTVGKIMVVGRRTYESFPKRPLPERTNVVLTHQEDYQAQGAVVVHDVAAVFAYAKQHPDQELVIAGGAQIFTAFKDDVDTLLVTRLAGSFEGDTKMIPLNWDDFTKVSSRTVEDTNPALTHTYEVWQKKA

ID50 [1] [nM]	ID50 [2] [nM]	IC50 [3] [nM]	ID50 [4] [nM]	SMILES
2200	170	11000	–	CN(Cc1cnc2nc(N)nc(N)c2n1)c1ccc(C(=O)NC(CCC(=O)NN)C(=O)OC(C)(C)C)cc1 (stereo not given)
36	53	90	3.3	CCCCNC(=O)CCC(NC(=O)c1ccc(N(C)Cc2cnc3nc(N)nc(N)c3n2)cc1)C(=O)O (stereo not given)
–	–	10	–	CN(Cc1cnc2nc(N)nc(N)c2n1)c1ccc(C(=O)N[C@@H](CCC(=O)O)C(=O)O)cc1 [METHOTREXATE]

The next lines start with the compound.

SMILES	ID50 [1] [nM]	ID50 [2] [nM]	IC50 [3] [nM]	ID50 [4] [nM]
COC(=O)C(CCC(=O)OC(C)(C)C)NC(=O)c1ccc(N(C)Cc2cnc3nc(N)nc(N)c3n2)cc1 (stereo not given)	3900	330	4900	11
COC(=O)CCC(NC(=O)c1ccc(N(C)Cc2cnc3nc(N)nc(N)c3n2)cc1)C(=O)OC(C)(C)C (stereo not given)	2200	200	9700	19
CN(Cc1cnc2nc(N)nc(N)c2n1)c1ccc(C(=O)NC(CCC(=O)OC(C)(C)C)C(=O)O)cc1 (stereo not given)	12	25	20	2.9
CN(Cc1cnc2nc(N)nc(N)c2n1)c1ccc(C(=O)NC(CCC(=O)NN)C(=O)O)cc1 (stereo not given)	13	2.1	20	12
CN(Cc1cnc2nc(N)nc(N)c2n1)c1ccc(C(=O)NC(CCC(=O)NCc2ccccc2)C(=O)O)cc1 (stereo not given)	–	–	30	–
CCCCNC(=O)CCC(NC(=O)c1ccc(N(C)Cc2cnc3nc(N)nc(N)c3n2)cc1)C(=O)OCc1ccccc1 (stereo not given)	250	–	–	–
CN(Cc1cnc2nc(N)nc(N)c2n1)c1ccc(C(=O)NC(CCC(=O)O)C(=O)OC(C)(C)C)cc1 (stereo not given)	210	36	5200	35
